System: cataracts in rats
Test: Prevention or retardation of cataracts in galactose-fed rats
Format: in vivo, rat
Conditions: for % of Total Eyes, + (vacuole) / % of Total Eyes, - (Normal) / % of Total Eyes, N (nuclear cataract) / % of Total Eyes, S (snowflake) / Number of Eyes Observed, + (vacuole) / Number of Eyes Observed, - (Normal) / Number of Eyes Observed, N (nuclear cataract) / Number of Eyes Observed, S (snowflake) / Number of Eyes Observed, ±: 30% galactose diet, A,C,E 0.0025%, B,D 0.01%
Experimental: The compounds to be tested were:
Test compound/diet mixtures were formulated as follows: […]
Similarly, the 0.01% level was designed to provide a drug concentration of 20 mg per kilogram per day.
All animals were fed the Purina Laboratory Chow and water, ad libitum for a two day acclimatization period. The indicated test compound/diet mixture then was introduced to all animals on Study Day 1 and the animals were maintained on this diet throughout thirty days of the study.
Sufficient amounts of test compound/diet mixture were maintained in the food hoppers to allow the animals to eat ad libitum. All aliquots of test compound/diet mixture added to the food hoopers were weighed and the weights, as well as day of addition, recorded.
Twelve animals were assigned to each treatment with each compound at the indicated percentage by total weight of feed. All eyes were examined with a handheld ophthalmoscope and/or penlight.

O=C1NC(=O)C2(CCOc3ccc(F)cc32)N1 (single isomer, unassigned) [SARGES**, dspiro (6fluoro-chroman-4,4imidazolidine)-2',5dione, reference compound]
20.8 days: time of suppression, time to vacuole formation (0.0025% in diet)
100%: suppression of the formation of nuclear cataracts (0.0025% in diet, 30 days)

CSc1ccc2c(c1)C1(CCO2)NC(=O)NC1=O (centres unmarked) [A]
58.4%: % of Total Eyes, + (vacuole) (Study Day 6)
4 eyes: Number of Eyes Observed, + (vacuole) (Study Day 5) | Number of Eyes Observed, ± (Study Day 10) | Number of Eyes Observed, S (snowflake) (Study Day 12) | Number of Eyes Observed, + (vacuole) (Study Day 24)
12 eyes: Number of Eyes Observed, + (vacuole) (Study Day 16) | Number of Eyes Observed, S (snowflake) (Study Day 16)
12.5%: % of Total Eyes, S (snowflake) (Study Day 10) | % of Total Eyes, N (nuclear cataract) (Study Day 30)
19 eyes: Number of Eyes Observed, - (Normal) (Study Day 4)
17 eyes: Number of Eyes Observed, + (vacuole) (Study Day 12)
5 eyes: Number of Eyes Observed, ± (Study Day 4)
50.0%: % of Total Eyes, + (vacuole) (Study Day 16) | % of Total Eyes, S (snowflake) (Study Day 16)
14 eyes: Number of Eyes Observed, + (vacuole) (Study Day 6)
8.3%: % of Total Eyes, - (Normal) (Study Day 5) | % of Total Eyes, - (Normal) (Study Day 6) | % of Total Eyes, - (Normal) (Study Day 8) | % of Total Eyes, - (Normal) (Study Day 10) | % of Total Eyes, + (vacuole) (Study Day 26) | % of Total Eyes, + (vacuole) (Study Day 28) | % of Total Eyes, N (nuclear cataract) (Study Day 28)
100.0%: % of Total Eyes, - (Normal) (Study Day 2) | % of Total Eyes, - (Normal) (Study Day 3)
4.2%: % of Total Eyes, + (vacuole) (Study Day 30)
18 eyes: Number of Eyes Observed, ± (Study Day 5) | Number of Eyes Observed, S (snowflake) (Study Day 20) | Number of Eyes Observed, S (snowflake) (Study Day 22)
24 eyes: Number of Eyes Observed, - (Normal) (Study Day 2) | Number of Eyes Observed, - (Normal) (Study Day 3)
1 eyes: Number of Eyes Observed, ± (Study Day 14) | Number of Eyes Observed, + (vacuole) (Study Day 30)
6 eyes: Number of Eyes Observed, ± (Study Day 8) | Number of Eyes Observed, + (vacuole) (Study Day 20) | Number of Eyes Observed, + (vacuole) (Study Day 22)
70.8%: % of Total Eyes, + (vacuole) (Study Day 12)
79.2%: % of Total Eyes, - (Normal) (Study Day 4)
75.0%: % of Total Eyes, S (snowflake) (Study Day 20) | % of Total Eyes, S (snowflake) (Study Day 22)
62.5%: % of Total Eyes, + (vacuole) (Study Day 10)
25.0%: % of Total Eyes, + (vacuole) (Study Day 20) | % of Total Eyes, + (vacuole) (Study Day 22)
15 eyes: Number of Eyes Observed, + (vacuole) (Study Day 10)
16.7%: % of Total Eyes, + (vacuole) (Study Day 5) | % of Total Eyes, S (snowflake) (Study Day 12) | % of Total Eyes, + (vacuole) (Study Day 24)
91.7%: % of Total Eyes, S (snowflake) (Study Day 26)
20 eyes: Number of Eyes Observed, S (snowflake) (Study Day 24) | Number of Eyes Observed, S (snowflake) (Study Day 28) | Number of Eyes Observed, S (snowflake) (Study Day 30)
66.7%: % of Total Eyes, + (vacuole) (Study Day 8) | % of Total Eyes, + (vacuole) (Study Day 14) | % of Total Eyes, S (snowflake) (Study Day 18)
2 eyes: Number of Eyes Observed, - (Normal) (Study Day 5) | Number of Eyes Observed, - (Normal) (Study Day 6) | Number of Eyes Observed, - (Normal) (Study Day 8) | Number of Eyes Observed, - (Normal) (Study Day 10) | Number of Eyes Observed, + (vacuole) (Study Day 26) | Number of Eyes Observed, + (vacuole) (Study Day 28) | Number of Eyes Observed, N (nuclear cataract) (Study Day 28)
0%: % of Total Eyes, + (vacuole) (Study Day 2) | % of Total Eyes, N (nuclear cataract) (Study Day 2) | % of Total Eyes, S (snowflake) (Study Day 2) | % of Total Eyes, + (vacuole) (Study Day 3) | % of Total Eyes, N (nuclear cataract) (Study Day 3) | % of Total Eyes, S (snowflake) (Study Day 3) | % of Total Eyes, + (vacuole) (Study Day 4) | % of Total Eyes, N (nuclear cataract) (Study Day 4) | % of Total Eyes, S (snowflake) (Study Day 4) | % of Total Eyes, N (nuclear cataract) (Study Day 5) | % of Total Eyes, S (snowflake) (Study Day 5) | % of Total Eyes, N (nuclear cataract) (Study Day 6) | % of Total Eyes, S (snowflake) (Study Day 6) | % of Total Eyes, N (nuclear cataract) (Study Day 8) | % of Total Eyes, S (snowflake) (Study Day 8) | % of Total Eyes, N (nuclear cataract) (Study Day 10) | % of Total Eyes, - (Normal) (Study Day 12) | % of Total Eyes, N (nuclear cataract) (Study Day 12) | % of Total Eyes, - (Normal) (Study Day 14) | % of Total Eyes, N (nuclear cataract) (Study Day 14) | % of Total Eyes, - (Normal) (Study Day 16) | % of Total Eyes, N (nuclear cataract) (Study Day 16) | % of Total Eyes, - (Normal) (Study Day 18) | % of Total Eyes, N (nuclear cataract) (Study Day 18) | % of Total Eyes, - (Normal) (Study Day 20) | % of Total Eyes, N (nuclear cataract) (Study Day 20) | % of Total Eyes, - (Normal) (Study Day 22) | % of Total Eyes, N (nuclear cataract) (Study Day 22) | % of Total Eyes, - (Normal) (Study Day 24) | % of Total Eyes, N (nuclear cataract) (Study Day 24) | % of Total Eyes, - (Normal) (Study Day 26) | % of Total Eyes, N (nuclear cataract) (Study Day 26) | % of Total Eyes, - (Normal) (Study Day 28) | % of Total Eyes, - (Normal) (Study Day 30)
8 eyes: Number of Eyes Observed, ± (Study Day 6) | Number of Eyes Observed, + (vacuole) (Study Day 18)
22 eyes: Number of Eyes Observed, S (snowflake) (Study Day 26)
16 eyes: Number of Eyes Observed, + (vacuole) (Study Day 8) | Number of Eyes Observed, + (vacuole) (Study Day 14) | Number of Eyes Observed, S (snowflake) (Study Day 18)
83.3%: % of Total Eyes, S (snowflake) (Study Day 24) | % of Total Eyes, S (snowflake) (Study Day 28) | % of Total Eyes, S (snowflake) (Study Day 30)
3 eyes: Number of Eyes Observed, S (snowflake) (Study Day 10) | Number of Eyes Observed, ± (Study Day 12) | Number of Eyes Observed, N (nuclear cataract) (Study Day 30)
0 eyes: Number of Eyes Observed, + (vacuole) (Study Day 2) | Number of Eyes Observed, N (nuclear cataract) (Study Day 2) | Number of Eyes Observed, S (snowflake) (Study Day 2) | Number of Eyes Observed, ± (Study Day 2) | Number of Eyes Observed, + (vacuole) (Study Day 3) | Number of Eyes Observed, N (nuclear cataract) (Study Day 3) | Number of Eyes Observed, S (snowflake) (Study Day 3) | Number of Eyes Observed, ± (Study Day 3) | Number of Eyes Observed, + (vacuole) (Study Day 4) | Number of Eyes Observed, N (nuclear cataract) (Study Day 4) | Number of Eyes Observed, S (snowflake) (Study Day 4) | Number of Eyes Observed, N (nuclear cataract) (Study Day 5) | Number of Eyes Observed, S (snowflake) (Study Day 5) | Number of Eyes Observed, N (nuclear cataract) (Study Day 6) | Number of Eyes Observed, S (snowflake) (Study Day 6) | Number of Eyes Observed, N (nuclear cataract) (Study Day 8) | Number of Eyes Observed, S (snowflake) (Study Day 8) | Number of Eyes Observed, N (nuclear cataract) (Study Day 10) | Number of Eyes Observed, - (Normal) (Study Day 12) | Number of Eyes Observed, N (nuclear cataract) (Study Day 12) | Number of Eyes Observed, - (Normal) (Study Day 14) | Number of Eyes Observed, N (nuclear cataract) (Study Day 14) | Number of Eyes Observed, - (Normal) (Study Day 16) | Number of Eyes Observed, N (nuclear cataract) (Study Day 16) | Number of Eyes Observed, ± (Study Day 16) | Number of Eyes Observed, - (Normal) (Study Day 18) | Number of Eyes Observed, N (nuclear cataract) (Study Day 18) | Number of Eyes Observed, ± (Study Day 18) | Number of Eyes Observed, - (Normal) (Study Day 20) | Number of Eyes Observed, N (nuclear cataract) (Study Day 20) | Number of Eyes Observed, ± (Study Day 20) | Number of Eyes Observed, - (Normal) (Study Day 22) | Number of Eyes Observed, N (nuclear cataract) (Study Day 22) | Number of Eyes Observed, ± (Study Day 22) | Number of Eyes Observed, - (Normal) (Study Day 24) | Number of Eyes Observed, N (nuclear cataract) (Study Day 24) | Number of Eyes Observed, ± (Study Day 24) | Number of Eyes Observed, - (Normal) (Study Day 26) | Number of Eyes Observed, N (nuclear cataract) (Study Day 26) | Number of Eyes Observed, ± (Study Day 26) | Number of Eyes Observed, - (Normal) (Study Day 28) | Number of Eyes Observed, ± (Study Day 28) | Number of Eyes Observed, - (Normal) (Study Day 30) | Number of Eyes Observed, ± (Study Day 30)
7 eyes: Number of Eyes Observed, S (snowflake) (Study Day 14)
33.3%: % of Total Eyes, + (vacuole) (Study Day 18)
29.2%: % of Total Eyes, S (snowflake) (Study Day 14)

— patent publication US4464385A, “Treatment of diabetic complications with hydantoins” (Alcon Laboratories, Inc., priority 1982, dated 1984)
